From publication PMC11649397, “The study of halogen effect on the reactivity of the serine-targeting covalent warheads” (Frontiers in Chemistry, 2024)
Where “and” joins values, the source holds several entries; their conditions need not be identical. Equal entries are not always repeated. Entries after “also recorded” stand apart in the source; their conditions may differ. Where two headings read alike, the source gives them in different places.

How the values were obtained:
hCES1A = target: T1, hCES1A (Homo sapiens, UniProt P23141); test: Inhibition assay on hCES1A (bioluminogenic substrate NLMe); type: biochemical; conditions: for selective inhibitory activity on hCES1A: 10 μM, selectivity screening; for anti-hCES1A effect in screening of the covalent fragment library: high-throughput screening, Figure 1; for IC50: mean ± SD, n = 3
T1 sequence (P23141 18-567): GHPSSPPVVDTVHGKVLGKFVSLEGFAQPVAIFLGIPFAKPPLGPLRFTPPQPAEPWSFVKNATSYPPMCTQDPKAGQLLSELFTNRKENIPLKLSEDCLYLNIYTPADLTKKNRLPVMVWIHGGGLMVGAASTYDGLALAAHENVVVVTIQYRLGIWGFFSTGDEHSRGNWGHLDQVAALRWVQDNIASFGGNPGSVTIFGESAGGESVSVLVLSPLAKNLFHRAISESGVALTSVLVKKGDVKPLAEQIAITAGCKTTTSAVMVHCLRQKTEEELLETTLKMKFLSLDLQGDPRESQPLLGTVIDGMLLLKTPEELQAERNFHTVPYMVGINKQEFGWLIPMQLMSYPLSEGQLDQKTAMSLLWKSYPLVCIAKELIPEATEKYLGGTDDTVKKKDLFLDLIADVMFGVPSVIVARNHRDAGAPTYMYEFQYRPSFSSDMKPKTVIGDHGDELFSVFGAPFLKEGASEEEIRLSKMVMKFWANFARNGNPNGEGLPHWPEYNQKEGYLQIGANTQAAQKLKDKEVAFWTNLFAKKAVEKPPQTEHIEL
Protocol: In this study, a known bioluminogenic probe substrate NLMe was used for human carboxylesterase 1 (hCES1A) inhibition assays. ([Wang et al., 2020]). In brief, the incubation mixture (0.1 mL) consisted of 0.1 M buffer PBS (PH 6.5), hCES1A (0.1 μg/mL, final concentration) and each test compound. […] After 20 min incubation, equal volume of LDR was added to stop reaction. The luminescence signals were monitored in the microplate reader (SpectraMax iD3Molecular Devices, Austria). […]
The household library of covalent fragments including D and F was from Organic Chemistry […]
Fig. S1. Partial fragment molecules of a household library targeting to serine. […]
Inhibition assay on hCES1A
In this study, a known bioluminogenic probe substrate NLMe was used for human carboxylesterase 1 (hCES1A) inhibition assays. 2 In brief, the incubation mixture (0.1 mL) consisted of 0.1 M buffer PBS (PH 6.5), hCES1A (0.1 μg/mL, final concentration) and each test compound. […]
After 20 min incubation, equal volume of LDR was added to stop reaction.

Notum = target: T2, Notum (Homo sapiens, UniProt Q6P988); test: Inhibition assay on Notum (substrate OPTS); type: biochemical; conditions: 10 μM, selectivity screening
T2 sequence (Q6P988 20-496): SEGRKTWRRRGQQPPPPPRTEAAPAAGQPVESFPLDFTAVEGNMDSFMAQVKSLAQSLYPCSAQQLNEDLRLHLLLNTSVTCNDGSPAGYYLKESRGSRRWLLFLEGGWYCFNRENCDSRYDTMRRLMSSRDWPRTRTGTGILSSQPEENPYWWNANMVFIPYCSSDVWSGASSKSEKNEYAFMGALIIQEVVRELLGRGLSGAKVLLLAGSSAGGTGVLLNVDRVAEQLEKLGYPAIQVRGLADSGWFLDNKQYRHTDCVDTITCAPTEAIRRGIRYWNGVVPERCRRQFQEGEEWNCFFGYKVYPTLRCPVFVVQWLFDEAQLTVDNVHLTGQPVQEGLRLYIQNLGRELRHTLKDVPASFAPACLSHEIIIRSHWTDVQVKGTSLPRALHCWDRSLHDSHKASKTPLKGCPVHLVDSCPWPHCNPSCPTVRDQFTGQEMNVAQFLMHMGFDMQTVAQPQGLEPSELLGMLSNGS
Protocol: fluorogenic probe. 4 Briefly, the incubation mixtures (0.1 mL) contained Tris-HCl buffer, hPL solution (0.25 μg/mL, final concentration), porcine bile salt (0.1 mg/mL, final concentration) and each inhibitor (with different concentrations). After preincubated at 37 °C for 3 min, DDAO-ol (20 µM, final concentration) was added to initial reaction. The fluorescent signals of hydrolytic product were quantified by using the microplate reader (Spectra Max M4, Austria), with the wavelength of 600 nm and 660 nm for excitation and emission, respectively.
Inhibition assay on Notum
OPTS, a known fluorogenic probe, was used as the substrate to assess the residual activities of Notum in the presence of each tested compound. […] After preincubated at 37 °C for 1 min, OPTS was added to initiate the hydrolytic reaction and the multi-mode microplate reader (SpectraMax iD3, Molecular Devices, Austria) was used to analyze the florescence signals of the […]
The F-3, F-4, F-10-bound peptides was analysed using the nanoLC-MS/MS system, respectively.6 The purified hCES1A (150 μg, final content) was co-incubated with the small molecule inhibitor F-3/ F-4/ F-10 (100 μM, final concentration) at 4 °C and 25 °C, respectively, for 4h. […]

Row | Compound | selective inhibitory activity on hCES1A (hCES1A) | difference between IC50 values of hCES1A and hCES2A (hCES1A; hCES1A vs hCES2A) | anti-hCES1A effect in screening of the covalent fragment library (hCES1A) | response to Notum (Notum) | IC50 (hCES1A; 3 min incubation, read-out: hCES1A IC50 3 min) | time-dependent inhibition against hCES1A (hCES1A; 3 min vs 33 min incubation) | IC50 (hCES1A; 33 min incubation, read-out: hCES1A IC50 33 min) | hCES1A IC50 Fold Increase (hCES1A; ratio of IC50 at 3 min to IC50 at 33 min)
1 | O=S(=O)(F)c1ccc(Br)cc1 [D, 4-bromobenzenesulfonyl fluoride] | decent selective inhibitory activities | no statistically significant difference | potent anti-hCES1A effects; also recorded: strong and selective inhibition against hCES1A | no potent responses |  |  |  | 
2 | O=C(c1ccccc1)C(F)(F)F [F, 2,2,2-trifluoroacetophenone] | decent selective inhibitory activities |  | potent anti-hCES1A effects; also recorded: strong and selective inhibition against hCES1A | no potent responses | 24.1 ± 1 nM | weak time-dependent inhibition | 11 nM and 11.1 nM | 2 and 2.2
